Test results reported in patent US20030096022A1, “Compositions and methods for the treatment and prevention of cardiovascular diseases and disorders, and for identifying agents therapeutic therefor” (Medlyte, Inc., priority 2000, published 2003).

Assays:
Adult rat cardiomyocytes = assay: Hypoxia-induced sphingosine (SPH) production/release in cultured adult cardiomyocytes, HPLC of extracted sphingolipids; type: cell-based; conditions: cells pretreated 30 min with TNFRII:Fc 0.5 ng/mL or L-carnitine 20 ng/mL prior to 5 h hypoxia, FIG. 4
Method: Adult rat cardiomyocytes were subjected to hypoxic conditions as described above and assayed for their ability to produce sphingolipid bases involved in the sphingomyelin signal transduction cascade.
Cardiomyocytes were cultured on plastic dishes that were placed in a humidified modular incubator chamber (ICN Biomedicals, Aurora, Ohio) pressurized to 0.04-0.05 psi by the particular gas mixture used in the treatment. Warm (37° C.) Tyrode's solution containing 0.2 mM BSA, ampicillin ([…]), kanamycin (100 mg/mL) and fungizone (20 μg/mL) was gassed in a 50 mL sterile conical for 15 minutes with 95%N2/5% CO2 prior to adding the solution to the cultured cells. The pO2 was monitored by a Micro pO2 System oxygen electrode (Lasar Research Labs, Los Angeles, Calif.) and found to be 4.0 PPM for the duration of the hypoxia condition. […] The pH of control and experimental cell cultures was monitored with a micro pH electrode (Beetrode pH Electrodes, Sarasota, Fla.) and remained constant at pH=7.26+/−0.02 for normoxic cells and 7.15+/−0.03 for hypoxic cells throughout the experiment. […]
The HPLC analysis was performed using a Beckman (Fullerton, Calif.) System Gold 118 Solvent Module and 507e Autosampler. A Jasco (Easton, Md.) FP-920 Intelligent Fluorescence Detector was used with an excitation wavelength of 330 nm and emission wavelength of 455 nm. […]

[1] = test system: Langendorff rat heart model of ischemia; assay: Global ischemia and reperfusion in isolated Langendorff-perfused rat heart (left ventricular pressure); conditions: 0.1 mM gentamicin recirculated 30 min, 40 min global ischemia, 45 min reperfusion; FIG. 5
Text: The protocol used was essentially that described by Sakai et al. (A device for recording left ventricular contraction and electrocardiogram in nonworking isolated perfused rat heart, Jpn J Pharmacol 28:223-9, 1978), and Zelinski et al., (Phosphatidylcholine biosynthesis in isolated hamster heart, J Biol Chem. 255:11423-8, 1980) with the exception, in the latter instance, that rat studies were used in the experiments described herein instead of hamster hearts.
In brief, rats were anesthetized and their hearts were excised. The isolated hearts were cannulated and attached to Langendorff perfusion apparatus, and perfused with KH buffer. The hearts were allowed to stabilize for 5-10 min. After stabilization, the hearts should be paceable and drip rate should be between 5 and 10 mls per minute.
A small hole was cut in the left atrium of each animal to expose the mitral valve. A deflated transducer balloon was introduced into the left ventricle through the hole in left atrium. The transducer tube was taped and adjusted so that there was no pressure on the heart. Left ventricular pressure was measured and recorded using the MacLab program. […]
After about 45 min., the perfusate was turned off and the ventricular pressure was no longer recorded. […]

[2] = target: tumor necrosis factor alpha (TNFα) released by hypoxic rat cardiomyocytes (rat) (UniProt P16599); assay: cell-based or functional assay
Chain of tumor necrosis factor alpha (TNFα) released by hypoxic rat cardiomyocytes (rat) (P16599 80-235 limits assumed): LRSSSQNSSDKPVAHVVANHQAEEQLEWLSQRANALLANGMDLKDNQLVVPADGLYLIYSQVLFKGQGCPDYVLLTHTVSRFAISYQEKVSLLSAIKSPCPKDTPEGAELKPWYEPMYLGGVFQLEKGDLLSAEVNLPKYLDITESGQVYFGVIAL

For `C[N+](C)(C)C[C@H](O)CC(=O)[O-]` [L-carnitine], the “reducing the amount of total SPH (hypoxia-induced production of sphingosine)” value (Adult rat cardiomyocytes) was “significantly (p<0.01) reducing” and the “reducing the amount of total SPH (hypoxia-induced production of sphingosine)” value (Adult rat cardiomyocytes; listed as L-camitine) was “blocks”.
Gentamicin Sulfate was tested, and the “ischemia and reperfusion injury” value [1] was “mitigated”.
In the case of “TNFRII:Fc receptor fragment (from UniProt P20333 23-257) (Fc fusion)”, the SPH release from hypoxic adult rat cardiomyocytes (HPLC) [2] is reported as 3 fold.
